These results are taken from US10537558B2 (Bantam Pharmaceutical, LLC, priority 2015, dated 2020).

In general, EC50 refers to the concentration giving half of the maximal effect.

The first experiment relates to BJAB cells. In words: BJAB cell proliferation (Cell Titer Glo). The experiment is classed as cell-based.
Conditions: not given
Summed up:
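EC50 values come from non-linear regression of luminescence (Cell Titer Glo), expressed relative to untreated wells. BJAB cells were incubated roughly 72 h at 37 °C with serial compound dilutions carrying 0.1% final DMSO.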
Consider `Cc1nn(-c2nc(-c3ccc(C#N)cc3)c(SC(C)C)s2)c(C(=O)O)c1-c1cccc(F)c1` [Compound 213, 1-(4-(4-cyanophenyl)-5-(isopropylthio)thiazol-2-yl)-4-(3-fluorophenyl)-3-methyl-1H-pyrazole-5-carboxylic acid], for which the EC50 result is listed as “C-”.

Still in this experiment, the particulars now being: Homo sapiens, read-out: EC50.
`Cc1nn(-c2nc(-c3ccc(S(C)(=O)=O)cc3)c(SC(C)C)s2)c(C(=O)O)c1-c1cccc(F)c1` [Compound 188, 4-(3-fluorophenyl)-1-(5-(isopropylthio)-4-(4-(methylsulfonyl)phenyl)thiazol-2-yl)-3-methyl-1H-pyrazole-5-carboxylic Acid]: the concentration for a half-maximal effect (EC50) is greater than 40 µM.

For the molecule `COc1cc(-c2nc(-n3nc(C)c(-c4cccc(F)c4)c3C(=O)O)sc2SC(C)C)ccc1F` [Compound 189, 1-(4-(4-fluoro-3-methoxyphenyl)-5-(isopropylthio)thiazol-2-yl)-4-(3-fluorophenyl)-3-methyl-1H-pyrazole-5-carboxylic Acid], the EC50 is 10 to 25 µM.

Consider `Cc1cc(-c2c(C)nn(-c3nc(-c4ccc(Cl)c(C)c4)c(SC(C)C)s3)c2C(=O)O)cc(C)n1` [Compound 190, 1-(4-(4-chloro-3-methylphenyl)-5-(isopropylthio)thiazol-2-yl)-4-(2,6-dimethylpyridin-4-yl)-3-methyl-1H-pyrazole-5-carboxylic Acid], for which the EC50 is 1 to 5 µM.

Consider `Cc1cc(-c2nc(-n3nc(C)c(-c4cccc(F)c4)c3C(=O)O)sc2SC(C)C)ccc1Cl` [Compound 191, 1-(4-(4-chloro-3-methylphenyl)-5-(isopropylthio)thiazol-2-yl)-4-(3-fluorophenyl)-3-methyl-1H-pyrazole-5-carboxylic Acid], for which the concentration giving a half-maximal response (EC50) was in the range of 1 to 5 µM.

Consider `Cc1cc(-c2c(C)nn(-c3nc(-c4cc(F)c(Cl)c(F)c4)c(SC(C)C)s3)c2C(=O)O)cc(C)n1` [Compound 192, 1-(4-(4-chloro-3,5-difluorophenyl)-5-(isopropylthio)thiazol-2-yl)-4-(2,6-dimethylpyridin-4-yl)-3-methyl-1H-pyrazole-5-carboxylic Acid], for which the half-maximal effective concentration (EC50) is 1 to 5 µM.

Take `Cc1nn(-c2nc(-c3cc(F)c(Cl)c(F)c3)c(SC(C)C)s2)c(C(=O)O)c1-c1cccc(F)c1` [Compound 193, 1-(4-(4-chloro-3,5-difluorophenyl)-5-(isopropylthio)thiazol-2-yl)-4-(3-fluorophenyl)-3-methyl-1H-pyrazole-5-carboxylic Acid]: the EC50 was in the range of 1 to 5 µM.

`COc1cc(-c2nc(-n3nc(C)c(-c4cc(C)nc(C)c4)c3C(=O)O)sc2SC(C)C)ccc1Cl` [Compound 194, 1-(4-(4-chloro-3-methoxyphenyl)-5-(isopropylthio)thiazol-2-yl)-4-(2,6-dimethylpyridin-4-yl)-3-methyl-1H-pyrazole-5-carboxylic Acid]: the concentration giving a half-maximal response (EC50) is 1 to 5 µM.

Take `COc1cc(-c2nc(-n3nc(C)c(-c4cccc(F)c4)c3C(=O)O)sc2SC(C)C)ccc1Cl` [Compound 195, 1-(4-(4-chloro-3-methoxyphenyl)-5-(isopropylthio)thiazol-2-yl)-4-(3-fluorophenyl)-3-methyl-1H-pyrazole-5-carboxylic Acid]: the 50% effective concentration (EC50) fell in the range of 5 to 10 µM.

Turning to `Cc1cc(-c2c(C)nn(-c3nc(-c4ccc(C(F)(F)F)cc4)c(SC(C)C)s3)c2C(=O)O)cc(C)n1` [Compound 196, 4-(2,6-dimethylpyridin-4-yl)-1-(5-(isopropylthio)-4-(4-(trifluoromethyl)phenyl)thiazol-2-yl)-3-methyl-1H-pyrazole-5-carboxylic Acid], the concentration for a half-maximal effect (EC50) lay within 1 to 5 µM.

Consider `Cc1nn(-c2nc(-c3ccc(C(F)(F)F)cc3)c(SC(C)C)s2)c(C(=O)O)c1-c1cccc(F)c1` [Compound 197, 4-(3-fluorophenyl)-1-(5-(isopropylthio)-4-(4-(trifluoromethyl)phenyl)thiazol-2-yl)-3-methyl-1H-pyrazole-5-carboxylic Acid], for which the EC50 is less than 1 µM.

In the case of `COc1cc(-c2c(C)nn(-c3nc(-c4ccc(Cl)c(Cl)c4)c(SC(C)C)s3)c2C(=O)O)cc(C)n1` [Compound 199, 1-(4-(3,4-dichlorophenyl)-5-(isopropylthio)thiazol-2-yl)-4-(2-methoxy-6-methylpyridin-4-yl)-3-methyl-1H-pyrazole-5-carboxylic Acid], the EC50 fell in the range of 1 to 5 µM.

Consider `Cc1nn(-c2nc(-c3ccc(Cl)c(Cl)c3)c(SC(C)C)s2)c(C(=O)O)c1-c1cc(F)cc(OC2COC2)c1` [Compound 200, 1-(4-(3,4-dichlorophenyl)-5-(isopropylthio)thiazol-2-yl)-4-(3-fluoro-5-(oxetan-3-yloxy)phenyl)-3-methyl-1H-pyrazole-5-carboxylic Acid], for which the half-maximal effective concentration (EC50) is 1 to 5 µM.

In the case of `Cc1nn(-c2nc(-c3cccc(F)c3)c(SC(C)C)s2)c(C(=O)O)c1-c1cccc(F)c1` [Compound 201a], the EC50 fell in the range of 25 to 50 µM.

Take `Cc1nn(-c2nc(-c3cc4ccccc4o3)c(SC(C)C)s2)c(C(=O)O)c1-c1cccc(F)c1` [Compound 201b]: the concentration for a half-maximal effect (EC50) was 10 to 25 µM.

Turning to `Cc1nn(-c2nc(-c3ccccc3)c(SC(C)C)s2)c(C(=O)O)c1-c1cccc(F)c1` [Compound 202, 4-(3-fluorophenyl)-1-(5-(isopropylthio)-4-phenylthiazol-2-yl)-3-methyl-1H-pyrazole-5-carboxylic acid], the 50% effective concentration (EC50) is 10 to 25 µM.

Consider `Cc1nn(-c2nc(-c3ccccc3)c(SC(C)C)s2)c(C(=O)O)c1-c1cnn(C)c1` [Compound 203, 1-(5-(isopropylthio)-4-phenylthiazol-2-yl)-1′,3-dimethyl-1H,1′H-[4,4′-bipyrazole]-5-carboxylic acid], for which the EC50 is greater than 40 µM.

`Cc1cc(-c2c(C)nn(-c3nc(-c4ccc(F)cc4)c(SC(C)C)s3)c2C(=O)O)cc(C)n1` [Compound 204, 4-(2,6-dimethylpyridin-4-yl)-1-(4-(4-fluorophenyl)-5-(isopropylthio)thiazol-2-yl)-3-methyl-1H-pyrazole-5-carboxylic acid]: the 50% effective concentration (EC50) fell in the range of 1 to 5 µM.

As for `COc1cc(Cl)ccc1-c1nc(-n2nc(C)c(-c3cccc(F)c3)c2C(=O)O)sc1SC(C)C` [Compound 205, 1-(4-(4-chloro-2-methoxyphenyl)-5-(isopropylthio)thiazol-2-yl)-4-(3-fluorophenyl)-3-methyl-1H-pyrazole-5-carboxylic acid], the concentration for a half-maximal effect (EC50) lay in the range of 1 to 5 µM.

With `COc1cc(Cl)ccc1-c1nc(-n2nc(C)c(-c3cc(C)nc(C)c3)c2C(=O)O)sc1SC(C)C` [Compound 206, 1-(4-(4-chloro-2-methoxyphenyl)-5-(isopropylthio)thiazol-2-yl)-4-(2,6-dimethylpyridin-4-yl)-3-methyl-1H-pyrazole-5-carboxylic Acid], the EC50 lay in the range of 1 to 5 µM.

`Cc1ccc(-c2nc(-n3nc(C)c(-c4cccc(F)c4)c3C(=O)O)sc2SC(C)C)cc1Cl` [Compound 207, 1-(4-(3-chloro-4-methylphenyl)-5-(isopropylthio)thiazol-2-yl)-4-(3-fluorophenyl)-3-methyl-1H-pyrazole-5-carboxylic Acid]: the 50% effective concentration (EC50) lay in the range of 5 to 10 µM.

Turning to `Cc1nn(-c2nc(-c3cc(C)c(=O)n(C)c3)c(SC(C)C)s2)c(C(=O)O)c1-c1cccc(F)c1` [Compound 208, 1-(4-(1,5-dimethyl-6-oxo-1,6-dihydropyridin-3-yl)-5-(isopropylthio)thiazol-2-yl)-4-(3-fluorophenyl)-3-methyl-1H-pyrazole-5-carboxylic Acid], the EC50 was greater than 40 µM.

On to `Cc1nn(-c2nc(-c3cc(OC(F)(F)F)ccc3Cl)c(SC(C)C)s2)c(C(=O)O)c1-c1cccc(F)c1` [Compound 209, 1-(4-(2-chloro-5-(trifluoromethoxy)phenyl)-5-(isopropylthio)thiazol-2-yl)-4-(3-fluorophenyl)-3-methyl-1H-pyrazole-5-carboxylic acid], for which the EC50 is 10 to 25 µM.

Regarding `Cc1nn(-c2nc(-c3cncc(C#N)c3)c(SC(C)C)s2)c(C(=O)O)c1-c1cccc(F)c1` [Compound 210, 1-(4-(5-cyanopyridin-3-yl)-5-(isopropylthio)thiazol-2-yl)-4-(3-fluorophenyl)-3-methyl-1H-pyrazole-5-carboxylic acid], the half-maximal effective concentration (EC50) is greater than 40 µM.

As for `Cc1cc(-c2nc(-n3nc(C)c(-c4cccc(F)c4)c3C(=O)O)sc2SC(C)C)n(C)n1` [Compound 211, 1-(4-(1,3-dimethyl-1H-pyrazol-5-yl)-5-(isopropylthio)thiazol-2-yl)-4-(3-fluorophenyl)-3-methyl-1H-pyrazole-5-carboxylic acid], the EC50 was greater than 40 µM.

On to `Cc1nn(-c2nc(-c3cncnc3)c(SC(C)C)s2)c(C(=O)O)c1-c1cccc(F)c1` [Compound 212, 4-(3-fluorophenyl)-1-(5-(isopropylthio)-4-(pyrimidin-5-yl)thiazol-2-yl)-3-methyl-1H-pyrazole-5-carboxylic Acid], for which the EC50 is greater than 40 µM.

With `Cc1ccc(-c2nc(-n3nc(C)c(-c4cccc(F)c4)c3C(=O)O)sc2SC(C)C)cc1F` [Compound 214, 1-(4-(3-fluoro-4-methylphenyl)-5-(isopropylthio)thiazol-2-yl)-4-(3-fluorophenyl)-3-methyl-1H-pyrazole-5-carboxylic acid], the EC50 fell in the range of 1 to 5 µM.

On to `Cc1nn(-c2nc(-c3ccccc3C#N)c(SC(C)C)s2)c(C(=O)O)c1-c1cccc(F)c1` [Compound 215, 1-(4-(2-cyanophenyl)-5-(isopropylthio)thiazol-2-yl)-4-(3-fluorophenyl)-3-methyl-1H-pyrazole-5-carboxylic acid], for which the EC50 lay within 25 to 50 µM.

As for `Cc1cc(Cl)ccc1-c1nc(-n2nc(C)c(-c3cccc(F)c3)c2C(=O)O)sc1SC(C)C` [Compound 216, 1-(4-(4-chloro-2-methylphenyl)-5-(isopropylthio)thiazol-2-yl)-4-(3-fluorophenyl)-3-methyl-1H-pyrazole-5-carboxylic acid], the concentration giving a half-maximal response (EC50) was less than 1 µM.

Regarding `Cc1cc(C(F)(F)F)ccc1-c1nc(-n2nc(C)c(-c3cccc(F)c3)c2C(=O)O)sc1SC(C)C` [Compound 217, 4-(3-fluorophenyl)-1-(5-(isopropylthio)-4-(2-methyl-4-(trifluoromethyl)phenyl)thiazol-2-yl)-3-methyl-1H-pyrazole-5-carboxylic acid], the EC50 is less than 1 µM.
